Converted amounts (≈) assume the structure as drawn.
Assays:
[1] = biological target: Tissue-type plasminogen activator (Homo sapiens, UniProt P00750); assay type: single protein
Coagulation factor VII = biological target: T1, Coagulation factor VII (Homo sapiens, UniProt P08709); assay type: single protein
T1 sequence (P08709 whole entry): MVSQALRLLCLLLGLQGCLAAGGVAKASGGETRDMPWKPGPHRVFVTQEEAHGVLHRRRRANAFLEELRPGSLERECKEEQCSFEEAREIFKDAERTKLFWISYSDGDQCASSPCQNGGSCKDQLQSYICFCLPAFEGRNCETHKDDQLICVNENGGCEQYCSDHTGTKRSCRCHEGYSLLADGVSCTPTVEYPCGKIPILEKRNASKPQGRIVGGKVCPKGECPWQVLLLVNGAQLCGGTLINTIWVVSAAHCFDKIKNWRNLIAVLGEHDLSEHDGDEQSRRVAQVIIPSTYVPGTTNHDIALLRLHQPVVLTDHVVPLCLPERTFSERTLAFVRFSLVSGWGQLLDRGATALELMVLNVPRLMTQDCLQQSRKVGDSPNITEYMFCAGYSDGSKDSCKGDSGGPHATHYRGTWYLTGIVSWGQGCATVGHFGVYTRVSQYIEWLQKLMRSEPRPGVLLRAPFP

Complement factor D = Complement factor D (Homo sapiens, UniProt P00746); assay type: single protein
Complement factor D, sequence (P00746 whole entry): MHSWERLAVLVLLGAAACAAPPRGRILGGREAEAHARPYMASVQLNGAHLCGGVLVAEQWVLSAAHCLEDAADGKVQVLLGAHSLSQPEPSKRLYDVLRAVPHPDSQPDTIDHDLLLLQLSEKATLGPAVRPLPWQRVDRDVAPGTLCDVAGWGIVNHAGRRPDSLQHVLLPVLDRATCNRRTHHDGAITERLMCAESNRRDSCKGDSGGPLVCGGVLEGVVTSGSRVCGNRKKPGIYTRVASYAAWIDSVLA

Plasma kallikrein = Plasma kallikrein (Homo sapiens, UniProt P03952); assay type: single protein
Plasma kallikrein, sequence (P03952 20-390 limits assumed): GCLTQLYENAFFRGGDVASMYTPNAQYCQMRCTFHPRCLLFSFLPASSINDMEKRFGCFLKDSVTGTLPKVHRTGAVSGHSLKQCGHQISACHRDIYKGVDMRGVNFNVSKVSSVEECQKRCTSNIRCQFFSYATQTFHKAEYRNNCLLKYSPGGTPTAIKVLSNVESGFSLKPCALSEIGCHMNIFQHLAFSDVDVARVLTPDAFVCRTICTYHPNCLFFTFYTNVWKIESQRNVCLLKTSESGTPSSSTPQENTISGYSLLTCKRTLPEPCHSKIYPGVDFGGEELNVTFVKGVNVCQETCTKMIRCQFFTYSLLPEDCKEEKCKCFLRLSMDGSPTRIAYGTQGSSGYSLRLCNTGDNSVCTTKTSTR
Plasma kallikrein, sequence (P03952 391-638 limits assumed): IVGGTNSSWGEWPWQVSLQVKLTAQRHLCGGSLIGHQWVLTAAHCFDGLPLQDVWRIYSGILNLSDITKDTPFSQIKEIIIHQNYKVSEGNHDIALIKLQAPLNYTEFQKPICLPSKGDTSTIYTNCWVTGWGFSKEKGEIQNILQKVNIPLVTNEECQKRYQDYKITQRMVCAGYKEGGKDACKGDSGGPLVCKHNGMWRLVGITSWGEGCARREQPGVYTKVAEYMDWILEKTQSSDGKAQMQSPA

Coagulation factor X = Coagulation factor X (Homo sapiens, UniProt P00742); assay type: single protein
Coagulation factor X, sequence (P00742 41-179 limits assumed): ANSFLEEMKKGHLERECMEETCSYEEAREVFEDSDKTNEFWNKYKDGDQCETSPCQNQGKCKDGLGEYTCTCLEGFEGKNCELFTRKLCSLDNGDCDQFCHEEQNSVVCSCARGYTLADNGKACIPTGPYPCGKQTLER
Coagulation factor X, sequence (P00742 235-488 limits assumed): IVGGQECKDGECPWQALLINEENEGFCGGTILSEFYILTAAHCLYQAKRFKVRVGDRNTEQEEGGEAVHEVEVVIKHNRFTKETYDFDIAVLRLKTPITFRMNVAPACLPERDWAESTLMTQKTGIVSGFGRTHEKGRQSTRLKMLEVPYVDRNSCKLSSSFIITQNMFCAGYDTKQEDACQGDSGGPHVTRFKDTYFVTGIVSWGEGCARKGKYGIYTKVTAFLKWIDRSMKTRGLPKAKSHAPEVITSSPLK

Coagulation factor XI [2] = biological target: T2, Coagulation factor XI (Homo sapiens, UniProt P03951); test: Inhibition of […] human plasma F11a catalytic domain expressed in Escherichia coli strain BL21(DE3) using D-Leu-Pro-Arg*Rh110-D-Pro as substrate preincubated for 60 mins followed by substrate addition and measured after 60 mins by fluorescence assay
T2 sequence (P03951 19-387 limits assumed): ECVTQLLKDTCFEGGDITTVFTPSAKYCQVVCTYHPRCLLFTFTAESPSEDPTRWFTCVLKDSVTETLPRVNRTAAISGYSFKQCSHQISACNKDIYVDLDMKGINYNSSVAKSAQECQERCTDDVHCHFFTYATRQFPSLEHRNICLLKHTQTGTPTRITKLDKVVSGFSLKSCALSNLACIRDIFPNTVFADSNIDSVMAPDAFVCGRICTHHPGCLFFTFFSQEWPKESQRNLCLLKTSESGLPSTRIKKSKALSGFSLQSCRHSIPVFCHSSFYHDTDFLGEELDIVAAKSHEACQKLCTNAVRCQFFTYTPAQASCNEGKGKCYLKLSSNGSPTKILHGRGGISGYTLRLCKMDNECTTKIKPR
T2 sequence (P03951 388-625 limits assumed): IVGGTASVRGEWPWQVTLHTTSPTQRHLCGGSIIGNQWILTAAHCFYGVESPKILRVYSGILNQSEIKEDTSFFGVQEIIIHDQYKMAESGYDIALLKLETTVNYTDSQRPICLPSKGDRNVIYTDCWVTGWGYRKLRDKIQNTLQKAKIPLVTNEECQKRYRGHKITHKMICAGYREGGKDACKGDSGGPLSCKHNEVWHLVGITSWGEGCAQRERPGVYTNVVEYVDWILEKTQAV

Coagulation factor XI [3] = biological target: T2, Coagulation factor XI; test: Inhibition of human F11a using D-Leu-Pro-Arg*Rh110-D-Pro as substrate preincubated for 60 mins followed by substrate addition and measured after 60 mins by fluorescence assay
Coagulation factor IX = Coagulation factor IX (Homo sapiens, UniProt P00740); assay type: single protein
Coagulation factor IX, sequence (P00740 47-191 limits assumed): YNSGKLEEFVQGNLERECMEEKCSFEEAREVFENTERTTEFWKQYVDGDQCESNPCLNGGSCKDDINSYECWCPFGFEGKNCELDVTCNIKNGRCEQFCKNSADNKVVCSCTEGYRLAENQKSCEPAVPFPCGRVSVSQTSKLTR
Coagulation factor IX, sequence (P00740 227-461 limits assumed): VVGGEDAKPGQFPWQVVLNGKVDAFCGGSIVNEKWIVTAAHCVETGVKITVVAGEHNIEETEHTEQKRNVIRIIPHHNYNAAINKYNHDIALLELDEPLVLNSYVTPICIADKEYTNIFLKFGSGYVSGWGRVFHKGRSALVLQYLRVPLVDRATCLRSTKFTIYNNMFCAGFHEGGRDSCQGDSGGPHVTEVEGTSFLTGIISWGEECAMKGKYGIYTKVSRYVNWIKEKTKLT

Prothrombin = Prothrombin (Homo sapiens, UniProt P00734); assay type: single protein
Plasminogen = Plasminogen (Homo sapiens, UniProt P00747); assay type: single protein
Plasminogen, sequence (P00747 97-580 limits assumed): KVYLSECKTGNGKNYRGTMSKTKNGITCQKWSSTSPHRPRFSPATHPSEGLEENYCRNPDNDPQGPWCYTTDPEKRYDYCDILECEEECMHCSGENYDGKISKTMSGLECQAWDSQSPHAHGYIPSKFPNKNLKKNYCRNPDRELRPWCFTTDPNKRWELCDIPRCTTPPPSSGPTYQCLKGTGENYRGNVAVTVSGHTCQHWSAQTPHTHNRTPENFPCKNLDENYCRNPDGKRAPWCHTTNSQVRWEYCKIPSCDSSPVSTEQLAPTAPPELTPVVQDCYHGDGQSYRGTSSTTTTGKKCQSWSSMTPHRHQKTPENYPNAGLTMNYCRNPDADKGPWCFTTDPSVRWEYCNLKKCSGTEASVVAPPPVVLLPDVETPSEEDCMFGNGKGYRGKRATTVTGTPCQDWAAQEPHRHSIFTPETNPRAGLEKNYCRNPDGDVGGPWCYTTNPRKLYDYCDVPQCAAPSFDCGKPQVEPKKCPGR
Plasminogen, sequence (P00747 581-810 limits assumed): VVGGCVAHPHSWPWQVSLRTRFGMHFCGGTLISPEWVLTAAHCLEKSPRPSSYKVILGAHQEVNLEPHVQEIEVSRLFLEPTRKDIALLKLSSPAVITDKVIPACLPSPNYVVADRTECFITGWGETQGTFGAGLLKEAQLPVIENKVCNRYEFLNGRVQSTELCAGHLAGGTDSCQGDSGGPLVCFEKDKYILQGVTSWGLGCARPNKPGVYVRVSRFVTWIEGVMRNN

[4] = biological target: T3, Urokinase-type plasminogen activator (Homo sapiens, UniProt P00749); assay type: single protein
in vitro [5] = conditions: human, Caco-2
[6] = Dose normalized AUC in C57BL/6 mouse at 3 mg/kg, po by LC-MS/MS analysis; assay type: ADME, organism-based; conditions: in vivo
physchem = conditions: aqueous buffer, pH 6.8
in vitro [7] = conditions: human, Caco-2; remark: listed apart in the source
[8] = Oral bioavailability in C57BL/6 mouse at 3 mg/kg by LC-MS/MS analysis; assay type: ADME, organism-based; conditions: in vivo
[9] = Dose normalized Cmax in C57BL/6 mouse at 1 mg/kg, iv bolus injection or 3 mg/kg, po by LC-MS/MS analysis; assay type: ADME, organism-based; conditions: in vivo
[10] = Clearance in C57BL/6 mouse at 1 mg/kg, iv bolus injection or 3 mg/kg, po by LC-MS/MS analysis; assay type: ADME, organism-based; conditions: in vivo
[11] = Volume of distribution at steady state in C57BL/6 mouse at 1 mg/kg, iv bolus injection or 3 mg/kg, po by LC-MS/MS analysis; assay type: ADME, organism-based; conditions: in vivo, read-out: Vdss
[12] = Terminal half life in C57BL/6 mouse at 1 mg/kg, iv bolus injection or 3 mg/kg, po by LC-MS/MS analysis; assay type: ADME, organism-based; conditions: in vivo, read-out: beta t1/2 (converted)
in vitro [13] = conditions: human, Caco-2; remark: listed apart in the source
[14] = biological target: T3, Urokinase-type plasminogen activator; assay type: ADME
Homo sapiens = organism: Homo sapiens; test: Selectivity ratio of IC50 for inhibition of human complement FD to IC50 for inhibition of human F11a
Plasma [15] = test: Anticoagulant activity in human plasma assessed as concentration required to double the activated partial thromboplastin time incubated for 3 mins followed by calcium chloride addition by aPTT-s reagent based automated coagulometric method; assay type: functional
Plasma [16] = test: Effect on coagulation in human plasma assessed as concentration required to double the prothrombin time by thromboplastin-DS reagent based automated coagulometric method; assay type: ADME, cell-free

Tissue-type plasminogen activator, sequence (P00750 whole entry): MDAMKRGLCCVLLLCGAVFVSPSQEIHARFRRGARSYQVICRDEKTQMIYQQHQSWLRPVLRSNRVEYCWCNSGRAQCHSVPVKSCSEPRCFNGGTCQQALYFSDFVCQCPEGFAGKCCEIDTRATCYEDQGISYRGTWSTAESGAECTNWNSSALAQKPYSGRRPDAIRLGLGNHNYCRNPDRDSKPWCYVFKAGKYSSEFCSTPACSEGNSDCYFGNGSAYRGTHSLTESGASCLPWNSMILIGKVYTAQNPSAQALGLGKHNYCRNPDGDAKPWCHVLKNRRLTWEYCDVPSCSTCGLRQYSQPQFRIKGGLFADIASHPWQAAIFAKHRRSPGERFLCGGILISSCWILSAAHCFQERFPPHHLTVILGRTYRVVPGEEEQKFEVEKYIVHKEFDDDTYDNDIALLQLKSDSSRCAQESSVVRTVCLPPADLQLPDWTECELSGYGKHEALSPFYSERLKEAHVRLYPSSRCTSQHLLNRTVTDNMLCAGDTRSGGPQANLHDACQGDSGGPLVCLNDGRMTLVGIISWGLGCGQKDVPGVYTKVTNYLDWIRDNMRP

| SMILES | IC50 [1] [nM] | IC50 (Coagulation factor VII) [nM] | IC50 (Complement factor D) [nM] | IC50 (Plasma kallikrein) [nM] | IC50 (Coagulation factor X) [nM] | IC50 (Coagulation factor XI [2]) [nM] | IC50 (Coagulation factor XI [3]) [nM] | IC50 (Coagulation factor IX) [nM] | IC50 (Prothrombin) [nM] | IC50 (Plasminogen) [nM] | IC50 [4] [nM] | further results |
| --- | --- | --- | --- | --- | --- | --- | --- | --- | --- | --- | --- | --- |
| COc1cccc(C(=O)O)c1OCC(O)c1cc(-c2ccc3c(c2)[C@H](N)CO3)cc(C(C)C)c1 (mixture of isomers) | 6680 | 12500 | 27200 | 160 | 16300 | 8110 | 40 | 15500 | 7430 | 46200 | 1130 | – |
| O=C(O)Cc1ccccc1OCc1cccc(-c2ccc3c(c2)CNCC3)c1 | – | – | 800 | – | – | – | 400 | – | – | – | – | – |
| NC1COc2ccc(C(=O)N3C[C@@H](c4ccccc4)C[C@H]3C(=O)Nc3cccc(Cl)c3)cc21 (mixture of isomers) | – | – | – | 1200 | – | – | 970 | – | – | – | – | – |
| COc1cccc(C(=O)O)c1OCCc1cc(-c2ccc3c(c2)[C@H](N)CO3)cc(C(C)C)c1 | 2200 | 28300 | 17500 | 9 | 6210 | 240 | 3 | 10200 | 9090 | 30800 | 400 | – |
| CC(C)(O)c1cc(COc2ccccc2CC(=O)O)cc(-c2ccc3c(c2)CNCC3)c1 | – | – | 230 | 330 | – | 430 | 100 | – | – | – | – | – |
| CC(C)(C#N)c1cc(COc2ccccc2CC(=O)O)cc(-c2ccc3c(c2)[C@H](N)CO3)c1 | – | – | 40 | 2 | – | 50 | 4 | – | – | – | – | Papp B→A (in vitro [5]): 41 ×10⁻⁶ cm/s; AUC/dose [6]: 171 nM·h; solubility thermodynamic (physchem): 60 µM (≈ 26.6 µg/mL); efflux ratio (in vitro [7]): 30; bioavailability [8]: 25%; Cmax/dose [9]: 137 nM; clearance [10]: 55 mL/min/kg; Vd [11]: 0.7 L/kg; half-life [12]: 0.3 h; Papp A→B (in vitro [13]): 1.4 ×10⁻⁶ cm/s |
| CC1(C)COc2c(COc3ccccc3CC(=O)O)cc(-c3ccc4c(c3)[C@H](N)CCO4)cc21 | 190 | 75000 | 15000 | 4 | 4300 | 260 | 6 | 1600 | 860 | 14000 | – | IC50 [14]: 950 nM; Ratio IC50 (Homo sapiens): 2500 |
| CC(C)c1cc(CCOc2ccccc2C(=O)O)cc(-c2ccc3c(c2)[C@H](N)CO3)c1 | 90 | 3270 | 1320 | 25 | 240 | 1190 | 12 | 40 | 50 | 590 | 20 | – |
| NC1COc2ccc(-c3cccc(COc4ccccc4CC(=O)O)c3)cc21 (racemic) | – | – | 340 | 1300 | – | – | 200 | – | – | – | – | – |
| CC(C)c1cc(-c2ccc3c(c2)[C@H](N)CO3)cc(C(O)Cn2ccc3cccc(C(=O)O)c32)c1 (mixture of isomers) | 3700 | 16700 | 8920 | 16 | 11200 | 45 | < 0.7 | 13400 | 7210 | 17400 | 1420 | – |
| CC(C)c1cc(-c2ccc3c(c2)[C@H](N)CO3)cc([C@@H]2CNc3cccc(CC(=O)O)c3O2)c1 | 50 | 2000 | 60 | 1 | 220 | 10 | < 0.7 | 30 | 30 | 690 | 20 | 2aPTT (Plasma [15]): 0.4 µM |
| CC1(C)COc2c(COc3ccccc3CC(=O)O)cc(-c3ccc4c(c3)[C@H](N)CO4)cc21 | 100 | 7100 | 50 | 7 | 840 | 85 | 3 | 210 | 130 | 6300 | – | IC50 [14]: 16 nM; Papp B→A (in vitro [5]): 12 ×10⁻⁶ cm/s; AUC/dose [6]: 6525 nM·h; solubility thermodynamic (physchem): < 4 µM; efflux ratio (in vitro [7]): 1; bioavailability [8]: 61%; Cmax/dose [9]: 1126 nM; clearance [10]: 4 mL/min/kg; 2aPTT (Plasma [15]): 2.5 µM; Ratio IC50 (Homo sapiens): 17; 2PT (Plasma [16]): 19.8 µM; Vd [11]: 1 L/kg; half-life [12]: 6.4 h; Papp A→B (in vitro [13]): 12 ×10⁻⁶ cm/s |
| CC(C)c1cc(CCNc2ccccc2C(=O)O)cc(-c2ccc3c(c2)[C@H](N)CO3)c1 | – | – | – | – | – | – | 2520 | – | – | – | – | – |
| CC(C)c1cc(-c2ccc3c(c2)[C@H](N)CO3)cc(C(O)CN2CCc3cccc(C(=O)O)c32)c1 (mixture of isomers) | 490 | 8750 | 73600 | 2 | 1710 | 170 | 2 | 7860 | 6140 | 9580 | 250 | Ratio IC50 (Homo sapiens): 30000 |
| Cc1cccc(C(=O)O)c1OCCc1cc(-c2ccc3c(c2)[C@H](N)CO3)cc(C(C)C)c1 | 4130 | 45100 | > 100000 | 41 | 12500 | 6620 | 17 | 11300 | 9820 | > 100000 | 2480 | – |
| CC(C)c1cc(CCOc2c(Cl)cccc2C(=O)O)cc(-c2ccc3c(c2)[C@H](N)CO3)c1 | 3670 | 20500 | 34200 | 21 | 11100 | 5490 | 15 | 9600 | 6220 | 34000 | 930 | – |

Source: ChEMBL document CHEMBL4619774 (J Med Chem, 2020)
